Data: US20250339432A1, “QUINAZOLINONE COMPOUND AS BRAF INHIBITOR FOR THE TREATMENT OF ADVANCED SOLID CANCER OR METASTASES” (Hoffmann-La Roche Inc., priority 2022, published 2025)

Assays:
[1] = Food Cohort: food effect on PK (high-fat meal vs fasted); type: in vivo, human; details: fed cohort vs fasted, preliminary PK data, FIG. 3
Text: Part 1—Food Cohort: The food effect (FE) on the PK of Compound Ia will be evaluated in Part 1a (Compound Ia monotherapy) or in Part 1b (Compound Ia in combination with cobimetinib) at the MTD and/or RP2D, or at dose levels close to the RP2D and/or MTD of Compound Ia with or without cobimetinib. For exploring the effect of food intake, participants will receive Compound Ia after a high-fat meal (Group 1) or following a 10-hour fast (Group 2) using a parallel design. For this pilot FE evaluation, a minimum of 6 evaluable participants will be enrolled.
Meals and Dietary Restrictions: Generally, for participants receiving Compound Ia, no dietary restrictions are foreseen. A preliminary assessment of the FE (food effect) on the PK of Compound Ia will be done in Part 1 to inform about potential dietary requirements for the dose expansion (Part 2) in case a FE is observed. For participants receiving cobimetinib, the use of grapefruit juice, a potent CYP3A4 enzyme inhibitor, is prohibited during the study and for 30 days after the last dose of study treatment. For Participants in Food Cohort in the Food Cohort of Part 1, the effect of food on the systemic exposure of Compound Ia will be explored close to the MTD and/or at RP2D or relevant dose levels for a minimum of 6 participants. […] The food intake during the high-fat meal plus calories and fat content will be recorded.

[2] = Non-clinical safety benchmark dose in rats
[3] = human, in vivo
Text: Participants in the Pilot PK Cohort were enrolled and treated in a staggered manner (at least 3 days between the first and second participant).
The dosing regimen will then change to a twice-daily (BID) or three-times-daily (TID) administration, depending on new emerging PK data.
The number of patients with leptomeningeal involvement of their tumours is capped at 33% in each cohort. To avoid exposing participants to undue risk of toxicity, the maximum allowable dose increment recommended by the mCRM EWOC (modified continual reassessment method escalation with overdose control) design will be 100% (i.e., a 2-fold increase). […] The mCRM-EWOC will be adapted to the new dosing regimen.
Safety assessments will consist of monitoring and recording AEs, including serious AEs (SAEs) and non-SAEs of special interest (NSAESI); measurement of protocol-specified safety laboratory assessments; measurement of protocol-specified vital signs, ECGs; and other protocol-specified tests that are deemed critical to the safety evaluation of the study.

clinical = details: human, in vivo, po, 25 mg
Method: (§1) In a Pilot PK Cohort prior to the dose-escalation in Part 1a (monotherapy), the PK of Compound Ia was explored after a single, oral dose of 25 mg in 2 participants to address the PK uncertainty.
(§2) Blood samples to evaluate concentrations of Compound Ia and cobimetinib (and its metabolite[s], if appropriate) will be collected. The date and time of each sample collection will be recorded. Compound Ia and cobimetinib levels will be analyzed by using validated LC-MS/MS assays. […] Dedicated PK samples will be collected for the Pilot PK Cohort and the Food Cohort at pre-defined timepoints.
(§3) PK parameters for Compound Ia administered alone and in combination with cobimetinib will be derived from the plasma concentrations and will be listed and summarized using descriptive statistics (such as mean, standard deviation, coefficient of variation, median, minimum, and maximum). The PK parameters will include but are not limited to area under the curve (AUC), maximum concentration (Cmax), time of maximum concentration observed (Tmax) and, apparent oral clearance (CL/F), volume of distribution at steady-state (Vss/F), and terminal half-life (t½). Estimation of PK parameters may be performed using standard non-compartmental methods and/or population PK modeling. If data allow, other methods may be used for data analysis, e.g., PK and PD data may be used to develop a population PK/PD model. Individual and mean plasma Compound Ia concentration versus time data will be tabulated and plotted by dose levels. […] The linearity of PK (AUC and Cmax) will be investigated. To assess the FE on the PK of Compound Ia, PK parameters (such as AUC, Cmax, Tmax and t1/2) will be analyzed following oral administration of Compound Ia while either fed (high-fat meal) or fasted for a minimum of 6 participants. Estimation of PK parameters may be performed using standard non-compartmental methods and/or population PK modeling. Furthermore, Compound Ia CSF concentrations (where applicable) might be presented by listings and descriptive summary statistics (such as mean, standard deviation, coefficient of variation, median, minimum, and maximum). If data allow, other methods may be used for data analysis, e.g., PK and PD data may be used to develop a population PK/PD model.

[4] = in vivo
Method: as §1, §2, §3

[5] = Solubility / biopharmaceutics classification; type: physicochemical; details: for solubility across the physiological pH range: behaves like a weak acid

In the case of Cn1cnc2ccc(Oc3c(F)ccc(NS(=O)(=O)N4CC[C@@H](F)C4)c3C#N)cc2c1=O [Compound Ia, (3R)—N-[2-cyano-4-fluoro-3-(3-methyl-4-oxo-quinazolin-6-yl)oxy-phenyl]-3-fluoro-pyrrolidine-1-sulfonamide], the “effect of food on AUCINF (AUC0-∞)” value [1] is reported as “did not significantly alter”, the “effect of food on Cmax” value [1] is reported as “lower Cmax” and the NOAEL ([2]; rat, in vivo) is reported as 200 mg/kg/day. The “safety benchmark dose (toxic dose in 10% of animals)” value ([2]; rats) was 200 mg/kg/day, the “drug related Grade 3 adverse events” value [3] was “less than 25%” and the half-life (clinical) was 2 to 4 h. The “safety margin based on unbound AUC0-∞ to the safety benchmark dose of 200 mg/kg/day in rat” value [4] was 22 fold, the “safety margin based on unbound Cmax to the safety benchmark dose of 200 mg/kg/day in rat” value [4] was 4 fold and the “safety margin based on preliminary unbound AUC0-∞ to the safety benchmark dose of 200 mg/kg/day in rats” value ([4]; rat) was 174 fold. For the same compound, the “safety margin based on preliminary unbound Cmax to the safety benchmark dose of 200 mg/kg/day in rats” value ([4]; rat) was 32 fold, the “biopharmaceutics classification system class” value [5] was “class 2” and the solubility [5] was “low and pH dependent solubility”. The “solubility across the physiological pH range” value [5] was “purely soluble at low pH with increasing solubility at neutral and alkaline pH” and the “solubility across the physiological pH range” value ([5]; listed as compound of formula (I)) was “poorly soluble at low pH with increasing solubility at neutral and alkaline pH”.
